This passage reports EC50 results from patent US10646494B2, “Heterocycle-substituted tetracyclic compounds and methods of use thereof for the treatment of viral diseases” (Merck Sharp & Dohme Corp., priority 2016, dated 2020).

As a reminder, the EC50 is the concentration that produces a half-maximal response.

Holding throughout (set-up): species or system Hepatitis C virus (HCV)
One assay concerns HCV replicon 1A Y93H. The experiment in a line: Cell-based HCV replicon assay (Replicon Assay A), replicon 1AY93H. The conditions noted are these: read-out: Replicon EC50 (nM) 1A Y93H, replicon 1A Y93H, replicon RNA by real time PCR, cells harvested on day 3. As for the experimental part:
(§1) To measure cell-based anti-HCV activity of compounds of the present invention, two complimentary assays were employed using various replicons. In the first assay (“Replicon Assay A”), replicon cells were seeded at 2000 cells/well in 384-well 384-well flat bottom tissue culture treated clear bottom plate (Corning 3707) in the presence of the test compound. Various concentrations of test compound, typically in 10 serial dilutions, were added to the assay mixture, with the starting concentration ranging from 333.3 nM to […]. The final concentration of DMSO was 0.5%. Fetal bovine serum was 5%, in the assay media. Cells were harvested on day 3 by removing media and washing the cells with a suitable wash buffer. The cells are lysed with the addition of 1× Qiagen lysis buffer (Cat #1062731). The replicon RNA level was measured using real time PCR (TaqMan® EZ RT-PCR, Applied Biosystems 403028) with the following primers and probes: […]
(§2) Cyclophilin RNA was used as endogenous control and was amplified in the same reaction as NS5B (multiplex PCR). The real-time RT-PCR reactions were run on ABI PRISM 7900HT Sequence Detection System using the following program: 50° C. for 2 minutes, 60° C. for 30 minutes, 95° C. for 5 minutes, 40 cycles of 94° C. for 20 sec, 55° C. for 1 minutes.
(§3) The amount of HCV replicon RNA per cell is quantified using a linear regression curve for a known nanogram (ng) amount of HCV replicon total RNA. This is established by plotting the Cycle Threshold values (Ct) from the Neo probe and primer set versus the log (ng) for each HCV replicon total RNA standard. The amount of HCV RNA for each replicon sample is calculated by taking the sample's Ct value, minus the line intercept, divided by the slope of the line. Similarly, the amount of Cyclophilin mRNA per cell is also quantified using a linear regression curve for a known nanogram (ng) amount of HCV replicon total RNA. Again, this is established by plotting the Cycle Threshold values (Ct) from the Cyclophilin probe and primer set versus the log (ng) for each HCV replicon total RNA standard.
(§4) Data was obtained for various compounds of the present invention using the methods described in the Example above, and is presented in the table immediately below. Data for replicons 1A, 1AY93H and 2B were obtained using Replicon Assay A and data for replicons 1B were obtained using Replicon Assay B.

For another assay, the system named is HCV replicon 1A. Briefly: Cell-based HCV replicon assay (Replicon Assay A), replicon 1A. To be noted: replicon RNA by real time PCR, cells harvested on day 3. As to the method: as §1, §2, §3, §4
(Replicon systems follow genome replication, usually without infectious particles.)

In the next assay the test system is HCV replicon 2B. Briefly: Cell-based HCV replicon assay (Replicon Assay A), replicon 2B. The conditions noted are these: read-out: Replicon EC50 (nM) 2B, replicon 2B, replicon RNA by real time PCR, cells harvested on day 3. As to the method: as §1, §2, §3, §4
The subject of a further assay is HCV replicon 1B. Briefly: Cell-based HCV replicon assay (Replicon Assay B), replicon 1B. To be noted: replicon RNA by real-time PCR, incubated for 3 days. As to the method: In an alternate assay (“Replicon Assay B”), 1000 cells were seeded per well in a 384-well collagen coated black plate from Greiner bio-one (Cat #781946) in 5% FBS. Inhibitors of this invention were added at 24 h post-seeding, and the plates were incubated for 3 days. Cells were subsequently lysed with Qiagen lysis buffer (Cat #1062731) to extract the RNA. HCV replicon RNA level was measured by real-time PCR using the RNA-to-CT kit from Applied Biosystem (Cat #4392656) and genotype-specific primers and probes. The amplicon was located within NSSB. The sequence of the PCR primers are as follows: 5B.2F, ATGGACAGGCGCCCTGA (SEQ. ID NO. 1); 5B.2R, […] (SEQ. ID NO. 2); the probe sequence was FAM-labeled CACGCCATGCGCTGCGG (SEQ. ID NO. 3). To detect genotype 1A the primer 1A F, TGCGGAACCGGTGAGTACA and 1A R, […] were used; the probe sequence was FAM-[…].
The real-time RT-PCR reactions were run on ABI PRISM 7900HT or Viia7 Sequence Detection System using the following program: 48° C. for 30 minutes, 95° C. for 10 minutes, 40 cycles of 95° C. for 15 sec, 60° C. for 1 minutes. The 50% effective concentration (EC50) was the drug concentration necessary to achieve an increase in the cycle threshold (CT) of 1 over the projected baseline CT.
as §4

The structures appear in SMILES notation. Like-named read-outs stand apart in the source and are kept apart here.

Turning to `COC(=O)N[C@H](C(=O)N1CCC[C@H]1c1ncc(-c2cc(F)c3c(c2)OC(c2cnns2)n2c-3cc3cc(-c4cnc([C@@H]5CCCN5C(=O)[C@@H](NC(=O)OC)C(C)C)[nH]4)ccc32)[nH]1)C(C)C` (single isomer, unassigned) [Compound 22], the EC50 with HCV replicon 1A Y93H amounted to 0.048 nM; in the assay with HCV replicon 1A (Hepatitis C virus, 72 h), 0.0015 nM; in the assay on HCV replicon 2B it was 0.14 nM; in the assay with HCV replicon 1B (Hepatitis C virus, 72 h), 0.0024 nM.

As for `COC(=O)N[C@H](C(=O)N1CCC[C@H]1c1ncc(-c2cc(F)c3c(c2)OC(c2cc(C(C)C)no2)n2c-3cc3cc(-c4cnc([C@@H]5CCCN5C(=O)[C@@H](NC(=O)OC)C(C)C)[nH]4)ccc32)[nH]1)C(C)C` (single isomer, unassigned) [Compound 25], the 50% effective concentration (EC50) in the assay with HCV replicon 1A Y93H worked out at 0.026 nM; in the assay with HCV replicon 1A (Hepatitis C virus, 72 h), 0.0012 nM; in the assay with HCV replicon 2B it was 0.3 nM; in the assay with HCV replicon 1B (Hepatitis C virus, 72 h) it was 0.0011 nM.

Consider `COC(=O)N[C@H](C(=O)N1CCC[C@H]1c1ncc(-c2cc(F)c3c(c2)OC(c2cc(C4CC4)no2)n2c-3cc3cc(-c4cnc([C@@H]5CCCN5C(=O)[C@@H](NC(=O)OC)C(C)C)[nH]4)ccc32)[nH]1)C(C)C` (single isomer, unassigned) [Compound 30], for which the EC50 with HCV replicon 1A Y93H turned out to be 0.026 nM; with HCV replicon 1A (Hepatitis C virus, 72 h), 0.0012 nM; in the assay on HCV replicon 2B, 0.06 nM; in the assay with HCV replicon 1B (Hepatitis C virus, 72 h) it was 0.0017 nM.

Regarding `COC(=O)N[C@H](C(=O)N1CCC[C@H]1c1ncc(-c2cc(F)c3c(c2)OC(c2coc(C4CC4)n2)n2c-3cc3cc(-c4cnc([C@@H]5CCCN5C(=O)[C@@H](NC(=O)OC)C(C)C)[nH]4)ccc32)[nH]1)C(C)C` (single isomer, unassigned) [Compound 36], the EC50 came to 0.102 nM in the assay with HCV replicon 1A Y93H (Hepatitis C virus, 72 h); 0.0023 nM with HCV replicon 1A; 0.11 nM in the assay with HCV replicon 2B (Hepatitis C virus, 72 h); 0.0029 nM in the assay with HCV replicon 1B.
